{"source": "patent US20240210412A1", "about": "“SULFONYL-TRIAZOLE COMPOUNDS USEFUL AS LIGANDS AND INHIBITORS OF PROSTAGLANDIN REDUCTASE 2” (University of Virginia Patent Foundation, priority 2021, published 2024)", "assay_in_all_cases": "SILAC LC-MS ABPP", "assay_type_in_all_cases": "cell-based", "conditions_in_all_cases": "25 μM 2 h, live DM93 cells", "key": {"[1]": {"target": "T1, P40939 (Homo sapiens, UniProt P40939)", "T1 construct": "endogenous in cells; host or cells: DM93 cells (SILAC)", "T1 sequence (P40939 37-763)": "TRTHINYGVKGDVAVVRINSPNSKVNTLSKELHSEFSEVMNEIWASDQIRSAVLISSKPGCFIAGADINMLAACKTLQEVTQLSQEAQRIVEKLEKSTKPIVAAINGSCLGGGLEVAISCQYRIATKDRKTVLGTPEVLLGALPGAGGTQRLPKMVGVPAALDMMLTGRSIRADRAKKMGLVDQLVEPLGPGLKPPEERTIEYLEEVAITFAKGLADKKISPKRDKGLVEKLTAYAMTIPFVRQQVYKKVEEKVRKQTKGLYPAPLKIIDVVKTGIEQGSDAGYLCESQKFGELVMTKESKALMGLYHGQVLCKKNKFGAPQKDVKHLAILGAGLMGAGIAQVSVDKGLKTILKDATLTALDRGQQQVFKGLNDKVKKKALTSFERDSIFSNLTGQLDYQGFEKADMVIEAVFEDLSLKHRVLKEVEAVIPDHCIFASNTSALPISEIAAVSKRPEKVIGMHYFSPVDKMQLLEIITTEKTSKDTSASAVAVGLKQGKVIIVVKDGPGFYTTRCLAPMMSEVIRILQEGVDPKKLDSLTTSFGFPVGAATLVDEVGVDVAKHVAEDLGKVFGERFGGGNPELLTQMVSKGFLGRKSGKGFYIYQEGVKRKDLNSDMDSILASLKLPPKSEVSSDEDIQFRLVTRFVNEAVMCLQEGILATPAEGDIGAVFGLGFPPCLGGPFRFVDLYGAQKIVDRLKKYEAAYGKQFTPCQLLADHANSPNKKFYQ", "T1 sequence (P55084 34-474 partner)": "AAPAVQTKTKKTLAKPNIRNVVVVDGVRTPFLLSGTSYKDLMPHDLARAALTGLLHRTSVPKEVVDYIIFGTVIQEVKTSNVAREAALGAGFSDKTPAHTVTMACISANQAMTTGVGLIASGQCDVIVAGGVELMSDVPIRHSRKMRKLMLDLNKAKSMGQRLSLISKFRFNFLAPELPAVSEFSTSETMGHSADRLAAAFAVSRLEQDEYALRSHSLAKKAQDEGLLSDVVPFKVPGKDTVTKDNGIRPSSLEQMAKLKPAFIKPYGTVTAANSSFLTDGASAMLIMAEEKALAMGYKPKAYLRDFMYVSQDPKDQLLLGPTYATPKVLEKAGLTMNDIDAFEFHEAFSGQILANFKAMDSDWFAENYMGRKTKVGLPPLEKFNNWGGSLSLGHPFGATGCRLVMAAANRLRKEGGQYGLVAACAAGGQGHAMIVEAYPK", "procedure,_shortened": "(§1)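 First, heavy-labelled DM93 cells were exposed to SuTEx ligand (25 μM) and light cells to DMSO, 2 h at 37 °C. Second, HHS-475 (100 μM) was added for 2 h. Third, soluble lysates were clicked to desthiobiotin-azide, pooled 1:1, trypsin-digested, avidin-enriched and analysed by LC-MS/MS.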"}, "[2]": {"target": "T2, Q92620 (Homo sapiens, UniProt Q92620)", "T2 construct": "endogenous in cells; host or cells: DM93 cells (SILAC), live-cell treatment", "T2 sequence (Q92620 whole entry)": "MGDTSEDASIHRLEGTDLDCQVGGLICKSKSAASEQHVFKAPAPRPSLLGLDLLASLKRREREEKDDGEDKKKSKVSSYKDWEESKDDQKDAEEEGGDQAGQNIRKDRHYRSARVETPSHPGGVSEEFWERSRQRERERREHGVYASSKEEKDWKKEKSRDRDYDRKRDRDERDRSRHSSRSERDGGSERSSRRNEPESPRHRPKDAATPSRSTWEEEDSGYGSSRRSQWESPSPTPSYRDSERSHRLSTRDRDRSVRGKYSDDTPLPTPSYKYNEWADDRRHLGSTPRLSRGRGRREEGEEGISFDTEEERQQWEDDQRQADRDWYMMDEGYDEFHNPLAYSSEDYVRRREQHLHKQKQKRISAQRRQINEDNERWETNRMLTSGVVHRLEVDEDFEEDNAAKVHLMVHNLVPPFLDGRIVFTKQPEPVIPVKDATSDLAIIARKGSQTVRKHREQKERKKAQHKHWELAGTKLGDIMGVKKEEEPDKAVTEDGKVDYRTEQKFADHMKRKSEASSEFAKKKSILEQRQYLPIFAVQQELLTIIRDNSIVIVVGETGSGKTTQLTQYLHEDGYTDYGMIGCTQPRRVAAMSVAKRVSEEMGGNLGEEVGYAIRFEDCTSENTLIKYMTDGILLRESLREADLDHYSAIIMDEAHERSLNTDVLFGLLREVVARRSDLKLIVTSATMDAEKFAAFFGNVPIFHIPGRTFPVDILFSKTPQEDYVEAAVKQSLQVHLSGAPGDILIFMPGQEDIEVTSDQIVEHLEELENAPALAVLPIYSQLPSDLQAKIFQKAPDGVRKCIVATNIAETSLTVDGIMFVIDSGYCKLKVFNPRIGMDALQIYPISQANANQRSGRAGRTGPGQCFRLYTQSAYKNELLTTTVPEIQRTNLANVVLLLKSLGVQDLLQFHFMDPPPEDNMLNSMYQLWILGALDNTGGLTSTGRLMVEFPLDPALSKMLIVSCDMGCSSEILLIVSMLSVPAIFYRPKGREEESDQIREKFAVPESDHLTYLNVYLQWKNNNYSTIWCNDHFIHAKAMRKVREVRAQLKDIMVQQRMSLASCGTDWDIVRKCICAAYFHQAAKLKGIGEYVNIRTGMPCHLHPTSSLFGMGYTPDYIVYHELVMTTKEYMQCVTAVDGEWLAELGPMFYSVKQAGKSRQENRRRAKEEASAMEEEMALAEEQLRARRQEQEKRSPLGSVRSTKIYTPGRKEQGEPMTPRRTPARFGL", "procedure,_shortened": "as §1"}, "[3]": {"target": "T3, P09960 (Homo sapiens, UniProt P09960)", "T3 construct": "endogenous in cells; host or cells: DM93 cells (SILAC)", "T3 sequence (P09960 whole entry)": "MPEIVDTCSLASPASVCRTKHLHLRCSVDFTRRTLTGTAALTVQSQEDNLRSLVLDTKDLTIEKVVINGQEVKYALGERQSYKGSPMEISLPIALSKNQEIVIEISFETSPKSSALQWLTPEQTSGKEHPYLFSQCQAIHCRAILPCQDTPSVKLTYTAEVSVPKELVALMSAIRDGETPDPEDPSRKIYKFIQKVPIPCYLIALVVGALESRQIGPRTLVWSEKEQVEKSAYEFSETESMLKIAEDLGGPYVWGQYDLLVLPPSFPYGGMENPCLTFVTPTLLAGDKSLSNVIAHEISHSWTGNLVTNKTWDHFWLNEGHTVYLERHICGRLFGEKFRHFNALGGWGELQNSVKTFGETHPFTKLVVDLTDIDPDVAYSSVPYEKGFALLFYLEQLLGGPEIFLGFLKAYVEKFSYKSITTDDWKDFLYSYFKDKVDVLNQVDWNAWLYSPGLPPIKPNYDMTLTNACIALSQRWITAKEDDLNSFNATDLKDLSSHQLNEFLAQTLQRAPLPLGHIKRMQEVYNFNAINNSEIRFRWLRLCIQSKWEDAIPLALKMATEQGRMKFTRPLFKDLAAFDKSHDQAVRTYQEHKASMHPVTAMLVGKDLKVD", "procedure,_shortened": "as §1"}, "[4]": {"target": "T4, Q969T9 (Homo sapiens, UniProt Q969T9)", "T4 construct": "endogenous in cells; host or cells: DM93 cells (SILAC), live-cell treatment", "T4 sequence (Q969T9 whole entry)": "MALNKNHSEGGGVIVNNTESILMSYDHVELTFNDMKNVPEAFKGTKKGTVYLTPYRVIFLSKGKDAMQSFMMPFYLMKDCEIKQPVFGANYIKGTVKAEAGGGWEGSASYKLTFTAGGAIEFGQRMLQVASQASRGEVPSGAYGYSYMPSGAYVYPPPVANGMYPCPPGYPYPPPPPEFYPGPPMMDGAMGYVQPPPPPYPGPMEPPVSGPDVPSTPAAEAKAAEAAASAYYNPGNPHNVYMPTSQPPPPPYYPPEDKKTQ", "procedure,_shortened": "as §1"}, "[5]": {"target": "Q9H009 (Homo sapiens, UniProt Q9H009)", "procedure,_shortened": "as §1"}, "[6]": {"target": "T5, Q8NBF2 (Homo sapiens, UniProt Q8NBF2)", "T5 construct": "endogenous in cells; host or cells: DM93 cells (SILAC), live-cell treatment", "procedure,_shortened": "as §1"}, "[7]": {"target": "T6, P20618 (Homo sapiens, UniProt P20618)", "T6 construct": "endogenous in cells; host or cells: DM93 (SILAC)", "procedure,_shortened": "as §1"}, "[8]": {"target": "T7, Q9P2E9 (Homo sapiens, UniProt Q9P2E9)", "T7 construct": "endogenous in cells; host or cells: DM93 cells (SILAC)", "procedure,_shortened": "as §1"}, "[9]": {"target": "T8, Q9BTC8 (Homo sapiens, UniProt Q9BTC8)", "T8 construct": "endogenous in cells; host or cells: DM93 cells (SILAC), treated live; soluble proteome analysed", "procedure,_shortened": "as §1"}, "[10]": {"target": "T9, P23921 (Homo sapiens, UniProt P23921)", "T9 construct": "Probe-modified proteins from the soluble fraction were conjugated to a desthiobiotin-azide tag; endogenous in cells; host or cells: DM93 (SILAC)", "procedure,_shortened": "as §1"}, "[11]": {"target": "T10, P36507 (Homo sapiens, UniProt P36507)", "T10 construct": "endogenous in cells; host or cells: DM93 (SILAC)", "T10 sequence (P36507 whole entry)": "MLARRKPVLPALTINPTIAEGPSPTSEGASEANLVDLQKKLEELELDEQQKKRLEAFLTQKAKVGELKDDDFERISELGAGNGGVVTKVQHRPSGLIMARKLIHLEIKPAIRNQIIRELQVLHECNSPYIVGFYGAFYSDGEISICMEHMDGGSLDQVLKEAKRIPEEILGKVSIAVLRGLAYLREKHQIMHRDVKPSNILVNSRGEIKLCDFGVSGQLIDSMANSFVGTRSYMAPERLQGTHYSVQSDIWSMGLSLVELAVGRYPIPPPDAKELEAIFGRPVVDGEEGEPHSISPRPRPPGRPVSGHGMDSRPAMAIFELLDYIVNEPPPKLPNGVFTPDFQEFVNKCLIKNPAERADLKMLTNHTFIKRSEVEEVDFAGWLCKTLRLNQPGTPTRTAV", "procedure,_shortened": "as §1"}, "[12]": {"target": "T11, P51003 (Homo sapiens, UniProt P51003)", "T11 construct": "Probe-modified proteins from the soluble fraction were conjugated to a desthiobiotin-azide tag; endogenous in cells; host or cells: DM93 cells (SILAC)", "T11 sequence (P51003 whole entry)": "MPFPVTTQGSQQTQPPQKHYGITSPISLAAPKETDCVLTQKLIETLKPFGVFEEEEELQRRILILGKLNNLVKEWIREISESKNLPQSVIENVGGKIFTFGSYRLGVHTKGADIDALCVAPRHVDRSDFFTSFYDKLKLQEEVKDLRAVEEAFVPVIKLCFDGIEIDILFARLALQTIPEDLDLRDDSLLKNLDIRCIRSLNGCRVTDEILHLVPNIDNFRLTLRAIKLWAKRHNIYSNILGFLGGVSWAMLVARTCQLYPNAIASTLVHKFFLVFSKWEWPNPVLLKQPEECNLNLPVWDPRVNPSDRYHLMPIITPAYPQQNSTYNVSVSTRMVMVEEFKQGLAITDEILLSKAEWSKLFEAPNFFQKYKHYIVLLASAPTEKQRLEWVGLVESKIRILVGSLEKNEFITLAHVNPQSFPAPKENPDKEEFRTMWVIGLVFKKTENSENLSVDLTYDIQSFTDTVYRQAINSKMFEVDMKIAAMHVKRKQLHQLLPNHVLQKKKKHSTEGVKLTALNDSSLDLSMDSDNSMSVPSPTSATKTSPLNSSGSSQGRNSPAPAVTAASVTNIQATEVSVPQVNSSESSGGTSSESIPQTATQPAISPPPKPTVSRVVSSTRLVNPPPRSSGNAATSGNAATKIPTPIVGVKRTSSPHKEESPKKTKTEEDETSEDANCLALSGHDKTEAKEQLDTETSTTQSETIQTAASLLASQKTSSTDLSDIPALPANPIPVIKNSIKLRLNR", "procedure,_shortened": "as §1"}, "[13]": {"target": "T12, O95260 (Homo sapiens, UniProt O95260)", "T12 construct": "endogenous in cells; host or cells: DM93 cells (SILAC)", "procedure,_shortened": "as §1"}, "[14]": {"target": "T13, P61326 (Homo sapiens, UniProt P61326)", "T13 construct": "performing SuTEx compound screening directly in cells; endogenous in cells; host or cells: DM93 cells (SILAC)", "procedure,_shortened": "as §1"}, "[15]": {"target": "T14, Q9NV35 (Homo sapiens, UniProt Q9NV35)", "T14 construct": "endogenous in cells; host or cells: DM93 cells (SILAC), treated live; soluble proteome analysed", "T14 sequence (Q9NV35 whole entry)": "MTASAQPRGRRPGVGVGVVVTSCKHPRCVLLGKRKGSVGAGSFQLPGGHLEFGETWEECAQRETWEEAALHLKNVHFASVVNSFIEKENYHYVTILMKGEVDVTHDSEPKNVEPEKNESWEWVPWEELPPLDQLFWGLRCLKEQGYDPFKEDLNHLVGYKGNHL", "procedure,_shortened": "as §1"}, "[16]": {"target": "T15, O60506 (Homo sapiens, UniProt O60506)", "T15 construct": "endogenous in cells; host or cells: DM93", "procedure,_shortened": "as §1"}, "[17]": {"target": "T16, O43852 (Homo sapiens, UniProt O43852)", "T16 construct": "endogenous in cells; host or cells: DM93", "T16 sequence (O43852 20-315)": "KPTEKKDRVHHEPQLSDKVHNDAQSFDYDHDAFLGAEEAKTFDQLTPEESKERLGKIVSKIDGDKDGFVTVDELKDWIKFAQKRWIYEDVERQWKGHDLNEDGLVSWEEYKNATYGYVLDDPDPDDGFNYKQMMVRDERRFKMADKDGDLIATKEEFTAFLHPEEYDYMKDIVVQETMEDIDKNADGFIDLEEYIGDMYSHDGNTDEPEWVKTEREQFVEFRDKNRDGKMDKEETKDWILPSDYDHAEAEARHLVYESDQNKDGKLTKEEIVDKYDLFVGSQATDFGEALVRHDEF", "procedure,_shortened": "as §1"}}, "data": [{"smiles": "O=C(c1ccc(S(=O)(=O)n2cncn2)cc1)N1CCC(c2ccccc2)CC1", "note": "[HHS-0701, (4-((1H-1,2,4-triazol-1-yl)sulfonyl)phenyl)(4-phenylpiperidin-1-yl)methanone]", "values": [{"measurement": "liganded tyrosine site 343", "setting": "[1]", "result": "HHS0701.Y (tyrosine sites that showed >80% reductions (SR >5) in probe labeling in cells treated with compounds (liganded sites))"}, {"measurement": "liganded tyrosine site 261", "setting": "[2]", "result": "HHS0701.Y (tyrosine sites that showed >80% reductions (SR >5) in probe labeling in cells treated with compounds (liganded sites))"}, {"measurement": "liganded tyrosine site 379", "setting": "[3]", "result": "HHS0701.Y (tyrosine sites that showed >80% reductions (SR >5) in probe labeling in cells treated with compounds (liganded sites))"}, {"measurement": "liganded tyrosine site 384", "setting": "[3]", "result": "HHS0701.Y (tyrosine sites that showed >80% reductions (SR >5) in probe labeling in cells treated with compounds (liganded sites))"}]}, {"smiles": "O=C(NC1CC1)c1ccc(S(=O)(=O)n2cncn2)cc1", "note": "[HHS-0101, 4-((1H-1,2,4-triazol-1-yl)sulfonyl)-N-cyclopropylbenzamide]", "values": [{"measurement": "liganded tyrosine site 232", "setting": "[4]", "result": "HHS0101.Y|HHS0701.Y (tyrosine sites that showed >80% reductions (SR >5) in probe labeling in cells treated with compounds (liganded sites))"}, {"measurement": "liganded tyrosine site 112", "setting": "[5]", "result": "HHS0101.Y|HHS0201.Y|HHS0301.Y|HHS0401.Y|HHS0701.Y (tyrosine sites that showed >80% reductions (SR >5) in probe labeling in cells treated with compounds (liganded sites))"}, {"measurement": "liganded tyrosine site 23", "setting": "[6]", "result": "HHS0101.Y (tyrosine sites that showed >80% reductions (SR >5) in probe labeling in cells treated with compounds (liganded sites))"}]}, {"smiles": "O=C(NC1CCCCC1)c1ccc(S(=O)(=O)n2cncn2)cc1", "note": "[HHS-0301, 4-((1H-1,2,4-triazol-1-yl)sulfonyl)-N-cyclohexylbenzamide]", "values": [{"measurement": "liganded tyrosine site 135", "setting": "[7]", "result": "HHS0301.Y (tyrosine sites that showed >80% reductions (SR >5) in probe labeling in cells treated with compounds (liganded sites))"}, {"measurement": "liganded tyrosine site 647", "setting": "[8]", "result": "HHS0301.Y (tyrosine sites that showed >80% reductions (SR >5) in probe labeling in cells treated with compounds (liganded sites))"}, {"measurement": "liganded tyrosine site 22", "setting": "[9]", "result": "HHS0301.Y (tyrosine sites that showed >80% reductions (SR >5) in probe labeling in cells treated with compounds (liganded sites))"}]}, {"smiles": "O=C(NCc1ccccc1)c1ccc(S(=O)(=O)n2cncn2)cc1", "note": "[HHS-0401, 4-((1H-1,2,4-triazol-1-yl)sulfonyl)-N-benzylbenzamide]", "values": [{"measurement": "liganded tyrosine site 485", "setting": "[10]", "result": "HHS0401.Y (tyrosine sites that showed >80% reductions (SR >5) in probe labeling in cells treated with compounds (liganded sites))"}, {"measurement": "liganded tyrosine site 244", "setting": "[11]", "result": "HHS0401.Y (tyrosine sites that showed >80% reductions (SR >5) in probe labeling in cells treated with compounds (liganded sites))"}, {"measurement": "liganded tyrosine site 327", "setting": "[12]", "result": "HHS0401.Y|HHS0701.Y (tyrosine sites that showed >80% reductions (SR >5) in probe labeling in cells treated with compounds (liganded sites))"}, {"measurement": "liganded tyrosine site 63", "setting": "[13]", "result": "HHS0401.Y|HHS0701.Y (tyrosine sites that showed >80% reductions (SR >5) in probe labeling in cells treated with compounds (liganded sites))"}]}, {"smiles": "O=C(NCC1CC1)c1ccc(S(=O)(=O)n2cncn2)cc1", "note": "[HHS-0201, 4-((1H-1,2,4-triazol-1-yl)sulfonyl)-N-(cyclopropylmethyl)benzamide]", "values": [{"measurement": "liganded tyrosine site 34", "setting": "[14]", "result": "HHS0201.Y (tyrosine sites that showed >80% reductions (SR >5) in probe labeling in cells treated with compounds (liganded sites))"}, {"measurement": "liganded tyrosine site 92", "setting": "[15]", "result": "HHS0201.Y (tyrosine sites that showed >80% reductions (SR >5) in probe labeling in cells treated with compounds (liganded sites))"}, {"measurement": "liganded tyrosine site 570", "setting": "[16]", "result": "HHS0201.Y|HHS0301.Y|HHS0401.Y|HHS0701.Y (tyrosine sites that showed >80% reductions (SR >5) in probe labeling in cells treated with compounds (liganded sites))"}, {"measurement": "liganded tyrosine site 294", "setting": "[17]", "result": "HHS0201.Y (tyrosine sites that showed >80% reductions (SR >5) in probe labeling in cells treated with compounds (liganded sites))"}]}]}
